Values of other authors in US11840582B2, “Synthesis method of cyclosporine derivatives” (Peking University Shenzhen Graduate School, priority 2021, dated 2023).
Non-standard residues stand in square brackets, D forms with d. Residues, ends and D or L forms follow the SMILES beside them. NMeThr(4R-Me,4-(CH2)6NHAc) = CN[C@H](C(=O)O)[C@H](O)[C@H](C)CCCCCCNC(C)=O; NMeL = CN[C@@H](CC(C)C)C(=O)O; NMeV = CN[C@H](C(=O)O)C(C)C; dNMeA = CN[C@H](C)C(=O)O; Abu = CC[C@H](N)C(=O)O

Tested on: cyclophilin proteins (CyP), including cyclophilin protein A, cyclophilin protein B, cyclophilin protein H and cyclophilin protein G

IC50: 1 to 7 nM | potency relative to cyclosporine A inhibiting the activity of cyclophilin protein: ≤ 13 times
Structure (SMILES): CC[C@@H]1NC(=O)[C@H]([C@H](O)[C@H](C)CCCCCCNC(C)=O)N(C)C(=O)[C@H](C(C)C)N(C)C(=O)[C@H](CC(C)C)N(C)C(=O)[C@H](CC(C)C)N(C)C(=O)[C@@H](C)NC(=O)[C@H](C)NC(=O)[C@H](CC(C)C)N(C)C(=O)[C@H](C(C)C)NC(=O)[C@H](CC(C)C)N(C)C(=O)[C@@H](C)N(C)C1=O [CRV431] (cyclo(A[dA][NMeL][NMeL][NMeV][NMeThr(4R-Me,4-(CH2)6NHAc)][Abu][dNMeA][NMeL]V[NMeL]))
